In series [1] the target is T1, BChE (Equus caballus, UniProt P81908). Conditions: ref Xavier et al. 2015; cited from earlier work.
Another series addresses T2, Elastase (Sus scrofa, UniProt P00772).
T2 construct: purchased Sigma-Aldrich
Description: Enzyme selectivity assay, elastase. In kind it is biochemical. Conditions: mean ± SD, read-out: Inhibitory activity (%) against Elastase. Here is the method: (§1) To determine enzyme selectivity, trypsin, chymotrypsin, and elastase were analyzed using […], and N-succinyl-Ala-Ala-Ala-pNA as substrates, respectively. The reaction mixture was incubated for 20 min and the absorbance was measured at 410 nm.

Another series has as its target T3, Chymotrypsin (Bos taurus, UniProt P00766).
T3 construct: purchased Sigma-Aldrich
The series can be described thus: Enzyme selectivity assay, chymotrypsin. It counts as biochemical. As to conditions: mean ± SD, read-out: Inhibitory activity (%) against Chymotrypsin. As to the method: as §1

The next series concerns the target AChE (Electrophorus electricus, UniProt O42275). Conditions: Dixon and Lineweaver-Burk plots.
For the next series, the system named is transgenic APP/PS1 mice. Conditions: 25 mg/kg; cited from earlier work.
The test system of the next series is Trypsin. Description: Enzyme selectivity assay, trypsin. It counts as biochemical. Conditions: mean ± SD. Here is the method: as §1
For a further series, the target named is T4, BACE1 (Homo sapiens, UniProt P56817).
T4 construct: purchased Thermo Fisher Scientific, Inc; host or cells: baculovirus expression system
T4 sequence (P56817 46-501): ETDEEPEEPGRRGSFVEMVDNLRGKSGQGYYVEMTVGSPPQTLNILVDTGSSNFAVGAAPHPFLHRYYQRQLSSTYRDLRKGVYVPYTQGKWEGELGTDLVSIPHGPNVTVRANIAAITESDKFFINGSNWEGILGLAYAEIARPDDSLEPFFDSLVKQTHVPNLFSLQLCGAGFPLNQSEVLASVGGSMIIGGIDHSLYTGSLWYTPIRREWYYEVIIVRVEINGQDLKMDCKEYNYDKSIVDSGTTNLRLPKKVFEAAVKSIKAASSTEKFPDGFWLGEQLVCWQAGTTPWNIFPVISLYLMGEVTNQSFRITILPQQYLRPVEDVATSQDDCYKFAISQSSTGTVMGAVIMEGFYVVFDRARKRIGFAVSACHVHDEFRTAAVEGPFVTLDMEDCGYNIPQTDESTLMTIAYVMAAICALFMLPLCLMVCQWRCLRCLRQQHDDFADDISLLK
The series can be described thus: BACE1 FRET assay. Conditions: mean ± SD, read-out: Inhibitory activity (%) against BACE1. It counts as biochemical. As to the method: To evaluate BACE1 inhibitory activity, a BACE1 FRET assay kit with a recombinant baculovirus-expressed BACE1 and a Rh-[…]-Quencher substrate was used. Briefly, a mixture of BACE1 (1.0 U/mL), the substrate, and tested sample at a different concentration, was incubated for 60 min at 25 °C in well plates. The increase in fluorescence intensity was measured by a fluorescence microplate reader at excitation and emission wavelengths of 545/590 nm (FLX800, Winooski, VT, USA). The inhibitory ratio (%) was calculated using the formula: Inhibition (%) = [1 − (S − S0)/(C − C0)] × 100, where C is the absorbance of control after 60 min of incubation, C0 is the absorbance of control at time 0, S was the absorbance of samples after 60 min of incubation, and S0 was the absorbance of the samples at time 0.

The subject of the next series is mice. As to conditions: cited from earlier work.
In a further series the test system is Sprague–Dawley rats. Conditions: 1 and 10 mg/kg; cited from earlier work.
Series [2] deals with T1, BChE. Description: Anti-cholinesterase activity assay (modified Ellman method), BChE. In kind it is biochemical. (In Ellman's method for cholinesterases, released thiocholine reacts with DTNB.)
Description: (§2) AChE or BChE (0.8 U/mL) was added to a mixture which contained 0.1 M sodium phosphate buffer, 5 mM DTNB, and a tested sample, and then incubated at 37 °C for 15 min.
(§3) The cholinesterases inhibition kinetics of zerumbone were analyzed using Dixon and Lineweaver-Burk plots. The dissociation constant (Ki) was determined by interpretation of the Dixon plot, and Vmax and Km were calculated by Lineweaver–Burk plots, using the initial velocities obtained over a substrate concentration range [11].
In series [3] the test system is oxidative stress related inflammation and cancer cell proliferation. Conditions: cited from earlier work.

Like-named read-outs stand apart in the source and are kept apart here.

T1 sequence (P81908 whole entry): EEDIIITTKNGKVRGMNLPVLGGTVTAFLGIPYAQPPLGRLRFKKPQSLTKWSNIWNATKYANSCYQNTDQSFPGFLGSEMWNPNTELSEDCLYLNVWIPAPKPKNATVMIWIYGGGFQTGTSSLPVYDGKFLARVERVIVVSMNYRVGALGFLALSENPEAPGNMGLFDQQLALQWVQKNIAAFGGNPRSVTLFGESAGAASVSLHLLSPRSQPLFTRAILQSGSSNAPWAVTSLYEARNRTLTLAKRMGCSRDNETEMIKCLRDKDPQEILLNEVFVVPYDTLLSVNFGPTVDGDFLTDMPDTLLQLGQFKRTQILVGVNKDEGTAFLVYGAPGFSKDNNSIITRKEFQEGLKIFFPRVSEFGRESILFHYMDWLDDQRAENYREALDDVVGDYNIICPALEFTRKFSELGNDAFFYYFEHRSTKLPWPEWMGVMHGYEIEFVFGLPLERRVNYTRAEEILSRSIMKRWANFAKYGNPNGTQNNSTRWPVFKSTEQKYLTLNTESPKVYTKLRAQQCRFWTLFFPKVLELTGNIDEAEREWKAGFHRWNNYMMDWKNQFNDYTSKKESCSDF
T2 sequence (P00772 27-266): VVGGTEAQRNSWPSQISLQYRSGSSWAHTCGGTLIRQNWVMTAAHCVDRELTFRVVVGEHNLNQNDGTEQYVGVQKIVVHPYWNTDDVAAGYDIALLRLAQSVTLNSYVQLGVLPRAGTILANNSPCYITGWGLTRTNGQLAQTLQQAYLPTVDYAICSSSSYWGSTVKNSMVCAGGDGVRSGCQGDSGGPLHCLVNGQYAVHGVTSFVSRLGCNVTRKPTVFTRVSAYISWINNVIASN
Sequence of AChE (O42275 24-633): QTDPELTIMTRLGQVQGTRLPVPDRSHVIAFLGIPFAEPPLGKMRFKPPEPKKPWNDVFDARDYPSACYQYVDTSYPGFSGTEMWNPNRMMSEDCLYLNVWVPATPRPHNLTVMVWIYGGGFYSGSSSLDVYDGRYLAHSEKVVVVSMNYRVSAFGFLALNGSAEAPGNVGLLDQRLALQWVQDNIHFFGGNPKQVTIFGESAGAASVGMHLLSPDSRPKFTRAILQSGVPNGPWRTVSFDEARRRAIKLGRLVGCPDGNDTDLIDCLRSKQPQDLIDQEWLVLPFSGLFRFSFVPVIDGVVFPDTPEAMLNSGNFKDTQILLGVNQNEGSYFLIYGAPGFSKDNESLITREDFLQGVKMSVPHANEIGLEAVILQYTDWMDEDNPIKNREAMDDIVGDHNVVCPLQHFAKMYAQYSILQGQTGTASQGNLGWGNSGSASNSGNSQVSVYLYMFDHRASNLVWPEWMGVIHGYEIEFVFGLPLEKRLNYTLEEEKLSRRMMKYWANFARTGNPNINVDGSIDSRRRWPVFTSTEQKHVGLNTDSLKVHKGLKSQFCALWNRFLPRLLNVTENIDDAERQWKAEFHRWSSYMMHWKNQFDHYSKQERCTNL
Description for AChE: as §2, §3

For the molecule `COc1ccc2c3c1O[C@H]1C[C@@H](O)C=C[C@@]31CCN(C)C2` [Galantamine], the “BChE Inhibition Type” value on BChE [1] is “Competitive ^5”.

With `C/C1=C\CC(C)(C)/C=C/C(=O)/C(C)=C/CC1` [Zerumbone], the results for the inhibition at 50 µM on Elastase (50 µM), on Chymotrypsin (50 µM) and at BACE1 (50 µM) were 3.46 ± 1.85%, 3.45 ± 0.3% and 13.3 ± 1.2%, respectively. Besides, the inhibition at 100 µM at Elastase (100 µM) came to 3.57 ± 0.94%; at Chymotrypsin (100 µM) it was 2.71 ± 0.45%; on BACE1 (100 µM), 16.1 ± 1.36%. The “AChE Inhibition Type” value at AChE was “Non-competitive”. Further, the “Effect on behavioral impairments and Aβ deposition” value in the series on transgenic APP/PS1 mice is “alleviated behavioral impairments and Aβ deposition”. In addition, the “Inhibitory activity (%) against Trypsin” value came to 5.00 ± 1.94% in the series with Trypsin (50 µM) and 3.75 ± 2.03% with Trypsin (100 µM). For the same molecule, the “Genotoxicity, organ weight, clinical chemistry, hematology, histopathology” value in the series on mice (mouse, in vivo, ip) is “did not cause any genotoxicity”. The “Acute toxicity in vivo” value in the series with mice (previous in vivo studies) is on record as “did not produce significant acute toxicity”. The “Effect on cognitive impairments and memory deficits related to scopolamine” value with Sprague–Dawley rats is “attenuated cognitive impairments and memory deficits”. Further, the “BChE Inhibition Type” value on BChE [2] (Dixon and Lineweaver-Burk plots) is given as “Competitive”. The “Fold more potent BChE suppression in comparison to galantamine” value at BChE [2] (versus positive control galantamine) was “approximately 3 fold”.

Regarding `C/C1=C\CC/C(C)=C/CC(C)(C)/C=C/C1` [α-Humulene], the “Activity in oxidative stress related inflammation and cancer cell proliferation” value in series [3] is “virtually inactive”.

The values above are taken from PMC7281973, “Biological and Computational Studies for Dual Cholinesterases Inhibitory Effect of Zerumbone” (Nutrients, 2020).
